Calls of active or inactive are those of the source. How the calls were made is not given here.
Test system: CCRIS mutagenicity, Ames/micronucleus/aberration tests
Assay: CCRIS mutagenicity studies
Details: Test System: AMES SALMONELLA TYPHIMURIUM
[1] = Strain/Indicator: TA98, Metabolic Activation: HAMSTER, LIVER, S-9, AROCLOR 1254 (10%), Method: PREINCUBATION
[2] = Strain/Indicator: TA98, Metabolic Activation: NONE, Method: PREINCUBATION
[3] = Strain/Indicator: TA98, Metabolic Activation: RAT, LIVER, S-9, AROCLOR 1254 (10%), Method: PREINCUBATION
[4] = Strain/Indicator: TA100, Metabolic Activation: HAMSTER, LIVER, S-9, AROCLOR 1254 (10%), Method: PREINCUBATION
[5] = Strain/Indicator: TA100, Metabolic Activation: NONE, Method: PREINCUBATION
[6] = Strain/Indicator: TA100, Metabolic Activation: RAT, LIVER, S-9, AROCLOR 1254 (10%), Method: PREINCUBATION
[7] = Strain/Indicator: TA1535, Metabolic Activation: HAMSTER, LIVER, S-9, AROCLOR 1254 (10%), Method: PREINCUBATION
[8] = Strain/Indicator: TA1535, Metabolic Activation: NONE, Method: PREINCUBATION
[9] = Strain/Indicator: TA1535, Metabolic Activation: RAT, LIVER, S-9, AROCLOR 1254 (10%), Method: PREINCUBATION
[10] = Strain/Indicator: TA1537, Metabolic Activation: NONE, Method: PREINCUBATION
[11] = Strain/Indicator: TA98, Metabolic Activation: NONE, Method: STANDARD PLATE
[12] = Strain/Indicator: TA98, Metabolic Activation: RAT, LIVER, S-9, AROCLOR 1254, Method: STANDARD PLATE
[13] = Strain/Indicator: TA100, Metabolic Activation: NONE, Method: STANDARD PLATE
[14] = Strain/Indicator: TA100, Metabolic Activation: RAT, LIVER, S-9, AROCLOR 1254, Method: STANDARD PLATE
[15] = Strain/Indicator: TA1535, Metabolic Activation: NONE, Method: STANDARD PLATE
[16] = Strain/Indicator: TA1535, Metabolic Activation: RAT, LIVER, S-9, AROCLOR 1254, Method: STANDARD PLATE
[17] = Strain/Indicator: TA1537, Metabolic Activation: NONE, Method: STANDARD PLATE
[18] = Strain/Indicator: TA1537, Metabolic Activation: RAT, LIVER, S-9, AROCLOR 1254, Method: STANDARD PLATE
[19] = Strain/Indicator: TA1538, Metabolic Activation: NONE, Method: STANDARD PLATE
[20] = Strain/Indicator: TA1538, Metabolic Activation: RAT, LIVER, S-9, AROCLOR 1254, Method: STANDARD PLATE

With `CC(C#N)CCC#N` (centres undefined) the mutagenic call (Strain/Indicator: TA97, Metabolic Activation: HAMSTER, LIVER, S-9, AROCLOR 1254 (5, 10 OR 30%), Method: PREINCUBATION) was “inactive; negative”, the mutagenic call (Strain/Indicator: TA97, Metabolic Activation: NONE, Method: PREINCUBATION) was “inactive; negative” and the mutagenic call (Strain/Indicator: TA97, Metabolic Activation: RAT, LIVER, S-9, AROCLOR 1254 (5, 1O OR 30%), Method: PREINCUBATION) was “inactive; negative”. The mutagenic call [1] was “inactive; negative”, the mutagenic call [2] was “inactive; negative” and the mutagenic call [3] was “inactive; negative”. The mutagenic call [4] was “inactive; negative”, the mutagenic call [5] was “inactive; negative” and the mutagenic call [6] was “inactive; negative”. For the same compound, the mutagenic call [7] was “inactive; negative”, the mutagenic call [8] was “inactive; negative” and the mutagenic call [9] was “inactive; negative”. For the same compound, the mutagenic call (Strain/Indicator: TA1537, Metabolic Activation: HAMSTER, LIVER, S-9, AROCLOR 1254 (10 OR 30%), Method: PREINCUBATION) was “inactive; negative”, the mutagenic call [10] was “inactive; negative” and the mutagenic call (Strain/Indicator: TA1537, Metabolic Activation: RAT, LIVER, S-9, AROCLOR 1254 (10 OR 30%), Method: PREINCUBATION) was “inactive; negative”.

With `CC(S)C(=O)NCC(=O)O` (centres undefined) the mutagenic call [11] was “inactive; negative”, the mutagenic call [12] was “inactive; negative” and the mutagenic call [13] was “inactive; negative”. For the same compound, the mutagenic call [14] was “inactive; negative”, the mutagenic call [15] was “inactive; negative” and the mutagenic call [16] was “inactive; negative”. For the same compound, the mutagenic call [17] was “inactive; negative”, the mutagenic call [18] was “inactive; negative” and the mutagenic call [19] was “inactive; negative”. For the same compound, the mutagenic call [20] was “inactive; negative”.

For `Nc1ccc(CC(=O)O)cc1`, the mutagenic call [11] was “inactive; negative” and the mutagenic call (Strain/Indicator: TA98, Metabolic Activation: RAT, LIVER, S-9, Method: STANDARD PLATE) was “active; positive”.

For `O=Nc1ccc(NNc2ccccc2)cc1`, the mutagenic call [12] was “active; positive” and the mutagenic call [14] was “active; positive”.

For `CC(C)NCC(O)COc1cccc2[nH]c3ccccc3c12` (centres undefined), the mutagenic call [11] was “inactive; negative”, the mutagenic call [12] was “inactive; negative” and the mutagenic call [13] was “inactive; negative”. The mutagenic call [14] was “inactive; negative”.

With `Nc1ccc(O)c2c1C(=O)c1c(O)ccc(N)c1C2=O` the mutagenic call [11] was “active; positive”, the mutagenic call [12] was “active; positive” and the mutagenic call [15] was “inactive; negative”. The mutagenic call [16] was “inactive; negative”, the mutagenic call [17] was “active; positive” and the mutagenic call [18] was “active; positive”. For the same compound, the mutagenic call [19] was “active; positive”, the mutagenic call [20] was “active; positive” and the mutagenic call (Strain/Indicator: TA1978, Metabolic Activation: NONE, Method: STANDARD PLATE) was “inactive; negative”. For the same compound, the mutagenic call (Strain/Indicator: TA1978, Metabolic Activation: RAT, LIVER, S-9, AROCLOR 1254, Method: STANDARD PLATE) was “inactive; negative”.

For `CC(=O)/C=C/c1ccco1`, the mutagenic call [1] was “inactive; negative”, the mutagenic call [2] was “inactive; negative” and the mutagenic call [3] was “inactive; negative”. The mutagenic call [4] was “inactive; negative”, the mutagenic call [5] was “inactive; negative” and the mutagenic call [6] was “inactive; negative”. The mutagenic call [7] was “inactive; negative”, the mutagenic call [8] was “inactive; negative” and the mutagenic call [9] was “inactive; negative”. For the same compound, the mutagenic call (Strain/Indicator: TA1537, Metabolic Activation: HAMSTER, LIVER, S-9, AROCLOR 1254 (10%), Method: PREINCUBATION) was “inactive; negative”, the mutagenic call [10] was “inactive; negative” and the mutagenic call (Strain/Indicator: TA1537, Metabolic Activation: RAT, LIVER, S-9, AROCLOR 1254 (10%), Method: PREINCUBATION) was “inactive; negative”.

`O=C(NCCCl)Sc1ncnc2nc[nH]c12` was tested, and the mutagenic call (Strain/Indicator: TA97, Metabolic Activation: NONE, Method: STANDARD PLATE) was “inactive; negative”, the mutagenic call (Strain/Indicator: TA97, Metabolic Activation: RAT, LIVER, S-9, PHENOBARBITAL AND ALPHA-NAPHTHOFLAVONE, Method: STANDARD PLATE) was “inactive; negative” and the mutagenic call [11] was “inactive; negative”. For the same compound, the mutagenic call (Strain/Indicator: TA98, Metabolic Activation: RAT, LIVER, S-9, PHENOBARBITAL AND ALPHA-NAPHTHOFLAVONE, Method: STANDARD PLATE) was “inactive; negative”, the mutagenic call [13] was “inactive; negative” and the mutagenic call (Strain/Indicator: TA100, Metabolic Activation: RAT, LIVER, S-9, PHENOBARBITAL AND ALPHA-NAPHTHOFLAVONE, Method: STANDARD PLATE) was “inactive; negative”. For the same compound, the mutagenic call [15] was “active; positive” and the mutagenic call (Strain/Indicator: TA1535, Metabolic Activation: RAT, LIVER, S-9, PHENOBARBITAL AND ALPHA-NAPHTHOFLAVONE, Method: STANDARD PLATE) was “active; positive”.

With `O=C(CCCl)N=c1sn(C(=O)CCCl)c2ccc(Cl)cc12` the mutagenic call (Strain/Indicator: TA100, Metabolic Activation: S-9, Method: STANDARD PLATE) was “inactive; negative”.
